Reference: a melting point compilation (Tetko et al.; mined from patent text by program, amines drawn as free bases though some values may be those of a salt)

Compound | melting point [°C]
Cc1c(OCC(F)(F)F)ccnc1CSc1nc2cc(N3CCCCC3)c(F)cc2[nH]1 | 160 to 161
COc1cc(OC)cc(-c2oc3ncnc(NC4CCCCCC4)c3c2-c2ccccc2)c1 | 151 to 152
COC(=O)CCc1oc(-n2cnc3ccccc32)nc1-c1ccc(C(F)(F)F)cc1 | 129 to 130
O=CNC1=NN(c2ccc(Cl)c(Cl)c2)CC1 | 151 to 153
O=C(NCCCCN1CCC(c2ccc3ccccc3c2)CC1)c1ccc(NC(=O)c2ccc(Cl)cc2)cc1 | 270
CC(CC1=C(c2cccc(O)c2)CCCNC1=O)N1CCCCC1 (stereo not given) | 218 to 220
CN(CCc1ccccc1)C(=O)C(O)C(O)c1ccccc1 (stereo not given) | 145 to 147
COc1ccc(C(=O)N2CCc3sccc3C2c2ccc(OC(F)(F)F)cc2)cc1 (stereo not given) | 68 to 70
CC(C)(C)C(=O)OC1CC(=O)C2(C)CCC3C(CCC4=CC(=O)CCC43C)C12 (stereo not given) | 148 to 150
Cc1cnc(-c2ccc3c(c2)c2cc(-c4ccc(Cl)cc4Cl)c(=O)n(C)c2n3C)o1 | 289 to 292
O=C1C(=O)N(Cc2ccc(F)nc2)c2ccc(S(=O)(=O)N3CC[C@H]3COc3ccccc3)cc21 | 177 to 178
CN(Cc1coc(C=Cc2ccc(C(F)(F)F)cc2)n1)c1ccc(OCCCn2ccnn2)cc1 | 137 to 138
CCOC(=O)c1ncn2c1[C@@H]1CCCN1C(=O)c1c-2ccc(F)c1F | 199 to 200
CC(O)c1c(-c2ccc(F)cc2)cc2c3c1ccn3C(=O)CNC2 (stereo not given) | 220 to 222
Cc1cc(C#N)cc(C)c1Oc1nc(Nc2ccc(C#N)cc2)ncc1N | > 300
O=C(O)CCCc1cc2cc(Cl)ccc2n1S(=O)(=O)c1cccc2ccccc12 | 206 to 210
CC(C)(O)c1nnc(-c2ccc3ncn(-c4ccc(OC(F)(F)F)cc4)c3c2)o1 | 159 to 160
OCc1cn(-c2cc(F)cc(C(F)(F)F)c2)cn1 | 144 to 145
CS(=O)(=O)c1ccc(-c2cnn(-c3ccc(F)c(Cl)c3)c(=O)c2Cc2cccc(F)c2)cc1 | 101 to 103
C[Si](Cl)(Cl)C(c1ccccc1)(c1ccccc1)c1ccccc1 | 170 to 172

Compound | melting point [°C]
N#CC(C(=O)Nc1ccc(S(=O)(=O)C(F)(F)F)cc1)=C(O)C1CC1 | 168 to 170
CC(C)NCC(O)c1cc(CO)cc(OCc2ccccc2)c1 (stereo not given) | 84 to 89
O=c1[nH]c2cc(Cl)c(Cl)cc2nc1Cl | > 300
COc1ccc2c(c1)c(Cc1nc(-c3ccc([N+](=O)[O-])cc3)cs1)c(C)n2Cc1ccc(Br)cc1 | 205 to 207
COc1cccc2nc3[nH]c(=O)[nH]c3cc12 | > 300
Oc1c(F)cc(Oc2ncc(C(F)(F)F)cc2F)cc1F | 125 to 128
O=c1ccc(-c2ccc(O)cc2)cn1Cc1ccc(Cl)cc1F | 207
CSc1ncnn1C[C@]1(c2ccc(F)c(F)c2)O[C@@H]1c1ccccc1Cl (relative stereo) | 79 to 81
Oc1ccc2oc(-c3ccc(O)c(F)c3)cc2c1 | 218 to 222
CNc1nc(-c2cccc(N)c2)cs1 | 118 to 121
CCNc1nnc(-c2ccc3ncn(-c4ccc(SC)cc4)c3c2)o1 | 226 to 227
C=CCc1cc2c(c(CC=C)c1O)CCC(=O)N2CCCn1cnnc1 | 129 to 132
CC(Cc1ccc(OCc2ccncc2)cc1)NCC(O)c1cccc(C(F)(F)F)c1 (stereo not given) | 83 to 90
O=C(Nc1ccc(C(=O)Oc2ccccc2)c(Cl)c1)NS(=O)(=O)c1ccccc1 | 183 to 185
N#CCCNC(=O)c1n[nH]cc1NC(=O)c1cccc(C#N)c1 | 248 to 249
O=C(NCc1ccccc1)c1ccc2cnccc2n1 | 113 to 115
CCOc1cc2c(Nc3cc(OC)c(Cl)cc3Cl)c(C#N)cnc2cc1OCCCC1CCN(C)CC1 | 148 to 151
Cn1c(C(F)(F)F)ccc(-c2cc(S(C)(=O)=O)c(Cl)cc2F)c1=O | 144 to 145
Cn1c(=O)c(-c2ccccc2Cl)cc2cnc(NC3CCS(=O)(=O)CC3)nc21 | 206 to 207
CCC1c2cccn2-c2ccc(F)cc2N1S(=O)(=O)c1ccc(O)c(Cl)c1 (stereo not given) | 180 to 184

Compound | melting point [°C]
N#Cc1cnn2c(-c3cccnc3)ccnc12 | 258 to 260
O=C1c2nccc(Cl)c2-c2nc3ccccc3c3ccnc1c23 | > 260
O=[N+]([O-])c1nccn1C1OC(CO)C(O)C1O (stereo not given) | 160
CN1CCC(c2ccc(Nc3cc(-c4cccc(-n5ncc6cc(C(C)(C)C)cc(F)c6c5=O)c4CO)nn(C)c3=O)nn2)CC1 | 260 to 265
OCC#Cc1ccc(F)cc1 | 32 to 33
OCC1=Cc2cc(Cl)ccc2Sc2sccc21 | 117 to 120
CSc1c([N+](=O)[O-])c2cc(Cl)ccc2[nH]c1=O | 213
Cc1csc(CN(C)C(=O)C23CC4CC(CC(C4)C2)C3)c1 | 87 to 88
O=S1(=O)N=C(NCC2CC2)Nc2ccc(Cl)cc21 | 288 to 290
CC(c1oc2ccccc2c(=O)c1-c1cccc(F)c1)n1ccc2c(Cl)ncnc21 (stereo not given) | 71 to 75
CCCCc1nc2c(N)nc3ccccc3c2n1CCN1C(=N)NC2CSC(CCCCC(N)=O)C21 (stereo not given) | 95 to 96
O=C(Nc1ccc(-n2ncn(-c3ccc(OCC(F)(F)C(F)F)cc3)c2=O)cc1)Oc1ccccc1 | 204 to 206
CN1CC=C(CC(=O)N2c3ccccc3NC(=O)c3ccccc32)CC1 | 200 to 201
COc1ccc([C@H](CC(=O)O)N2CCN(CCCc3ccc4c(n3)NCCC4)C2=O)cn1 | 122
O=C(O)c1ccccc1N1C(=O)c2ccc([N+](=O)[O-])cc2C1=O | 242 to 243
O=C1c2c(cccc2C(F)(F)F)-n2cnc(-c3noc(CN4Cc5ccccc5C4)n3)c2[C@@H]2CCN12 | 185 to 188
O=C(O)c1cn(C2CC2)c2c(F)c(N3CC4CC3CN4)c(F)cc2c1=O (stereo not given) | 288 to 290
C=CCOC(=O)c1ccccc1Cn1c(=O)n(S(=O)(=O)c2ccc(Cl)cc2)c(=O)c2ccc(Cl)cc21 | 155 to 156
O=C(Nc1ccc(-n2nc(C(F)(F)F)cc2C(F)(F)F)cc1)c1ccncc1 | 156 to 157
Cc1ccc(P2(=O)c3ccccc3CN2c2ccccc2)cc1 (stereo not given) | 180 to 181

Further lines, results first:

melting point [°C] | Compound
102 to 105 | COC(=O)c1cc(S(C)(=O)=O)ccc1OC1CCOC1=O (stereo not given)
134 to 135 | Cc1c(-c2ccccc2)oc2c(C(=O)CBr)cccc2c1=O
180 to 182 | CCCCOc1cc(C(=O)O)cc([N+](=O)[O-])c1C(=O)c1ccc(Cl)cc1
70 | CCOc1ccc(-n2cnnc2C(F)(F)F)cc1
93 to 94 | CCOC(=O)CNC(=O)c1ccc(N)cc1
190 to 191 | COc1cc(C(=O)O)ccc1C(C)c1c[nH]c2ccc(C(=O)NCCC(C)C)cc12 (stereo not given)
93 to 94 | C/C(=C\C=C(c1ccccc1)c1ccccc1)C(=O)NCCCCc1cccnc1
88 to 89 | CC(C)N1C(=O)N(c2ccccc2Cl)CSC1=NC(C)(C)C
236 to 238 | CC(CN)C1=CC(C)(C(=O)O)CC=C1 (stereo not given)
126 to 128 | CCCc1nccn1-c1nc(Cl)nc2c1ncn2C1OC(COC(C)=O)C(OC(C)=O)C1OC(C)=O (stereo not given)
122 to 124 | Cc1[nH]c2ccc(CCN(C)C3CCCCC3)cc2c1C(=O)OCc1ccccc1
65 to 71 | O=C(O)CCCC#CCC1=CC(O)CC1=O (stereo not given)
99 to 100 | COC(=O)c1ncccc1SCc1ccc(OC)cc1
128 to 129 | Cc1oc(-c2ccccc2)nc1COc1ccc(CO)cc1
136 to 139 | CSc1cc(C)nc(SC)c1NC(=O)CN1CCN(CCSc2nc3ccccc3s2)CC1
70 to 72 | COc1cc(C)c(N)c(C)c1C
> 290 | CCOC(=O)c1[nH]c2cc(Cl)cc(Cl)c2c1NCC(=O)c1ccccc1F
112 | COC(=O)C(CS)NC(=O)C(=O)NCCS (stereo not given)
75 | COc1ccc(S(=O)(=O)C2(C(=O)NO)CCN(C(C)C)CC2)cc1
144 to 146 | CC(=O)C(=Cc1cccc([N+](=O)[O-])c1)P1(=O)OCCCO1

melting point [°C] | Compound
111 | CCC(=O)NCCC1CCc2c(OC)ccc3ccc(OC)c1c23 (stereo not given)
109 to 110 | CCN(CC)CCNC(=O)c1cc(Cl)c(N)cc1OCC(=O)C(C)C
159 | CCCNC(=O)C1(CC=Cc2ccccc2)c2ccccc2CCc2ccccc21
132 to 134 | COc1ccc(COc2cccc(C(=O)Nc3ccc(C#N)cn3)c2)cc1
48 to 50 | CN(C)Cc1cccc(OCCCNC(=O)COC(=O)c2ccc(Cl)c(Cl)c2)c1
105 to 107 | CCOC(=O)NNC(=O)NCCC(=O)OC
214 to 215 | CC(=O)Oc1ccc(CCc2ccc(NC(=O)C3=C(O)c4ccccc4SC3)cc2)cc1OC(C)=O
88 to 89 | CCOC(=O)C=C(C)C=CC=C(C)C=Cc1c(C)sc(C)c1C
118 to 119 | CCOC(=O)C(C#N)c1ncccc1N (stereo not given)
380 to 382 | Cc1ccc2c([nH]c(=O)n3c(=O)[nH]nc23)c1C
177 to 179 | CCOC(=O)c1sc(N)nc1CC
180 to 181 | CON(C)C(=O)c1cc2cccc(NS(=O)(=O)c3cccs3)c2[nH]1
62 to 64 | COc1ccc(/C=C/c2cc(Cl)cc(Cl)c2)cc1
145 | Nc1nc2cc(Cl)c(Cl)cc2n1C1OC(CO)C(O)C1O (stereo not given)
115 to 125 | COc1ccc(S(=O)(=O)N2C(=O)[C@@](c3ccccc3OC)(N3C[C@H](OC(N)=O)C[C@H]3C(=O)N(C)C)c3cc(Cl)ccc32)c(OC)c1
152 to 153 | CS(=O)(=O)c1cc2c(c(C=O)c1O)CCC2
138 to 142 | CCOCC(=O)Nc1c(NCCNC(=O)OC(C)(C)C)c(C)c(C)n2nnnc12
58 to 59 | COc1cccc2c(CCO)c(C)oc12
243 to 244 | Cn1nnnc1Cc1ccc(NC(=O)/C=C/c2cnn(C)c2-c2ccc(F)cc2)cc1
199 to 200 | Cc1c2n(c3ccccc13)C(=O)C(C(O)c1ncc[nH]1)CC2 (stereo not given)
